Like-named read-outs stand apart in the source and are kept apart here.
Assays:
[1] = biological target: T1, StOASS (O-acetylserine sulfhydrylase) (Salmonella typhimurium, UniProt P0A1E3)
Description: (§1) Isothermal titration calorimetry (ITC) experiments were performed using a Nano-ITC (TA-Instruments). OASS was dialyzed at 25°C in 20 mM Tris buffer (pH 8.0) and 50 mM NaCl. Buffer solutions were degassed at room temperature prior to use. […] The heat of dilution for each injection was determined using buffer in the cell. Data obtained from the titration of ligands with OASS were analyzed using either a two-sites binding model (eqn 2)(2) [drawing 2]
(§2) Qi^tot is total heat after the i^th injection, V0 is the volume of calorimetric cell, K1 and K2 are the observed equilibrium constants for each site, and ΔH1 and ΔH2 are the corresponding enthalpy changes. Estimates of Kobs and ΔH were obtained by fitting the experimental data to the model and the best-fit parameters were selected based on the lowest Chi-squared values.

[2] = biological target: T2, HiOASS (O-acetylserine sulfhydrylase) (Haemophilus influenzae, UniProt P45040); conditions: for TdS / ΔG / ΔH: 20 mM Tris pH 8.0, 50 mM NaCl
Description: as §1, §2

[3] = biological target: T1, StOASS (O-acetylserine sulfhydrylase); experiment: PLP fluorescence titration of ligands with StOASS; assay type: binding; set-up: His tag (N); made in house; host or cells: E. coli BL21(DE3), pET28a(+); conditions: for N (number of binding sites) / Qmax (maximum fluorescence quenching at saturation) / ΔG / Kobs / Qmax: 20 mM Tris pH 8.0; for Kd: from K1,obs and K2,obs of the PLP fluorescence titration, read-out: Kd
Description: Titrations of ligands with StOASS were examined by monitoring changes in the active site pyridoxal 5'phosphate (PLP) fluorescence of OASS using a Varian spectrofluorometer. The excitation and emission wavelengths for monitoring PLP signal change upon ligand binding were 412 nm and 507 nm respectively. All experiments were done at 23.0 ± 1°C. Slit widths were set to 5 nm for all experiments and PMT voltage was adjusted to get maximum signal for a given protein concentration. Initial readings of both the sample, Fsamp,0 and buffer, Fbuf,0 were taken, with F0 = Fsamp,0-Fbuf,0 defined as the initial fluorescence of the sample. The sample cuvette was then titrated with aliquots of ligands and mixed, equilibrated for 2-5 minutes before measurement. Data points from five such measurements were averaged to obtain Fave,i. The relative fluorescence quenching upon ligand binding is defined as Qobs,i = (F0-Fobs,i)/F0. All measurements were corrected for dilution, and inner filter effects.
Binding of ligands to OASS was analyzed to obtain the equilibrium binding constant, Kobs = [PL]/[P]*[L], using a single or two independent site binding models (eqn 1)(1) [drawing 1]
Where n, number of binding sites, Qobs, observed fluorescence quenching and Qmax, the maximum fluorescence quenching at saturation.

[4] = biological target: T2, HiOASS (O-acetylserine sulfhydrylase); experiment: PLP fluorescence titration of ligands with HiOASS; assay type: binding; set-up: His tag (N); made in house; host or cells: E. coli BL21(DE3), pET28a(+); conditions: 20 mM Tris pH 8.0
[5] = 10°C, 20 mM Tris pH 8.0, 50 mM NaCl
[6] = 10°C, 20 mM Tris pH 8.0, 50 mM NaCl, two independent sites model
[7] = 15°C, 20 mM Tris pH 8.0, 50 mM NaCl
[8] = 20°C, 20 mM Tris pH 8.0, 50 mM NaCl
[9] = 25°C, 20 mM Tris pH 8.0, 50 mM NaCl
[10] = 30°C, 20 mM Tris pH 8.0, 50 mM NaCl
[11] = 35°C, 20 mM Tris pH 8.0, 50 mM NaCl
[12] = temperature not stated in the sentence (values match 30°C of Table 1)
[13] = [NaCl] 0.02 M, similar for each of two sites
[14] = from dependence of enthalpy on temperature

T1 sequence (P0A1E3 whole entry): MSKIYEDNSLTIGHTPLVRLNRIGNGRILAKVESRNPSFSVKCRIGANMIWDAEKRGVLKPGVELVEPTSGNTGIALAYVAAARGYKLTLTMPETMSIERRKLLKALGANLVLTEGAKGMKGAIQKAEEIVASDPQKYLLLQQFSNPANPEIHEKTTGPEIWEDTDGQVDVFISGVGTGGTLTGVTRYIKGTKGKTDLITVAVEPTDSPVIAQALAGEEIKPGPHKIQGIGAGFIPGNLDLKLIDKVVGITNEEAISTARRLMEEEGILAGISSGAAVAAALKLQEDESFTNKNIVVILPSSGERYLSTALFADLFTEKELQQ
T2 sequence (P45040 whole entry): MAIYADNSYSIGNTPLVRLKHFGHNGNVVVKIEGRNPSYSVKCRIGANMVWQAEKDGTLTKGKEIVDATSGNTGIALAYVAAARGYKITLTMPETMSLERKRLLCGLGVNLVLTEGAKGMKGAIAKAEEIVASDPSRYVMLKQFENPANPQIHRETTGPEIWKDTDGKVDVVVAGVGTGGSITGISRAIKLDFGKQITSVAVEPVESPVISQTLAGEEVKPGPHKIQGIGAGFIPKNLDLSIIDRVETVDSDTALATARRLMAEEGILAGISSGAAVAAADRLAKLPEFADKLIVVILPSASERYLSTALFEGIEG

## CSCC[C@H](N)C(=O)O [Methionine, L-methionine]
[1]; 25 mM HEPES, pH 8.0, 50 mM NaCl, 25°C
  ΔH: -0.4 ± 0.1 kJ/M
[1]; [5]
  TdS: 1.74 kcal/mol
  ΔH: -0.311 ± 0.024 kcal/mol
[1]; [6]
  ΔG: -2.06 ± 0.19 kcal/mol
[1]; [7]
  TdS: 1.72 kcal/mol
  ΔG: -2.06 ± 0.096 kcal/mol
  ΔH: -0.335 ± 0.024 kcal/mol
[1]; 20°C
  TΔS: 8.2 kJ/M
  ΔH: -1.5 ± 0.1 kJ/M
[1]; [8]
  TdS: 1.96 kcal/mol
  ΔG: -2.32 ± 0.12 kcal/mol
  ΔH: -0.359 ± 0.024 kcal/mol
[1]; [9]
  TdS: 2.06 kcal/mol
  ΔG: -2.27 ± 0.12 kcal/mol
  ΔH: -0.22 ± 0.024 kcal/mol
[1]; [10]
  TdS: 2.25 kcal/mol
  ΔG: -2.49 ± 0.19 kcal/mol
  ΔH: -0.239 ± 0.024 kcal/mol
[1]; [11]
  TdS: 2.41 kcal/mol
  ΔG: -2.7 ± 0.311 kcal/mol
  ΔH: -0.287 ± 0.024 kcal/mol
[1]; temperature not given
  net enthalpic contribution to total binding free energy: ~ 10%
[1]; [12]
  ΔG: -10.4 kJ/M
  ΔH: -1.0 ± 0.2 kJ/M
[2]
  enthalpic contribution to binding free energy: 8%
[2]; 10°C
  TdS: 1.7 kcal/mol
  ΔG: -1.72 ± 0.22 kcal/mol
  ΔH: -0.048 ± 0.024 kcal/mol
[2]; 15°C
  ΔG: -1.72 ± 0.22 kcal/mol
  ΔH: -0.048 ± 0.024 kcal/mol
[2]; 20°C
  TdS: 1.91 kcal/mol
  ΔG: -1.96 ± 0.239 kcal/mol
  ΔH: -0.048 ± 0.024 kcal/mol
[2]; 25°C
  TdS: 1.65 kcal/mol
  ΔG: -1.82 ± 0.263 kcal/mol
  ΔH: -0.19 ± 0.024 kcal/mol
[2]; 30°C
  TdS: 1.84 kcal/mol
  ΔG: -2.01 ± 0.239 kcal/mol
  ΔH: -0.17 ± 0.024 kcal/mol
[3]; [NaCl] 0.02 M
  N (number of binding sites): 2
  Qmax (maximum fluorescence quenching at saturation): 3.8
  ΔG: -3.18 ± 0.024 kcal/mol
[3]; [13]
  Kobs: 2.9 ± 0.1 × 10^2 M^-1
[3]; [NaCl] 0.02 M, similar for each of two sites, listed as methionine
  Kobs: 290 M⁻¹
[3]; [NaCl] 0.1 M
  Kobs: 6.5 ± 0.1 × 10^1 M^-1
  N (number of binding sites): 2
  Qmax: 1.0
  ΔG: -2.39 ± 0.024 kcal/mol
[3]; [NaCl] 0.2 M
  Kobs: 5.5 ± 0.1 × 10^1 M^-1
  N (number of binding sites): 2
  Qmax: 1.4
  ΔG: -2.25 ± 0.024 kcal/mol
[3]; [NaCl] 0.5 M
  Kobs: 3.5 ± 0.1 × 10^1 M^-1
  N (number of binding sites): 2
  Qmax: 0.5
  ΔG: -2.08 ± 0.024 kcal/mol
[3]
  Kd: ~3.4 mM
[4]; [NaCl] 0.02 M
  Kobs: 1.5 ± 0.1 × 10^2 M^-1
  Qmax: 3.0
  ΔG: -2.82 ± 0.048 kcal/mol
[4]; [NaCl] 0.1 M
  Kobs: 5.8 ± 0.1 × 10^1 M^-1
  N (number of binding sites): 2
  Qmax: 0.5
  ΔG: -2.27 ± 0.12 kcal/mol
[4]; [NaCl] 0.2 M
  Kobs: 3.4 ± 0.1 × 10^1 M^-1
  N (number of binding sites): 2
  Qmax: 0.2
  ΔG: -1.94 ± 0.12 kcal/mol
[4]; [NaCl] 0.5 M
  Kobs: 2.3 ± 0.1 × 10^1 M^-1
  N (number of binding sites): 2
  Qmax: 0.2
  ΔG: -1.74 ± 0.14 kcal/mol

## N[C@@H](CS)C(=O)O [Cysteine, L-cysteine]
[1]; [5]
  TdS: 1.65 kcal/mol
  ΔH: -0.645 ± 0.024 kcal/mol
[1]; [6]
  ΔG: -2.29 ± 0.096 kcal/mol
[1]; [7]
  TdS: 1.63 kcal/mol
  ΔG: -2.29 ± 0.072 kcal/mol
  ΔH: -0.669 ± 0.024 kcal/mol
[1]; 20°C
  TΔS: 3.4 kJ/M
  ΔH: -6.4 ± 0.1 kJ/M
[1]; [8]
  TdS: 0.813 kcal/mol
  ΔG: -2.34 ± 0.024 kcal/mol
  ΔH: -1.53 ± 0.024 kcal/mol
[1]; [9]
  TdS: 1.12 kcal/mol
  ΔG: -2.53 ± 0.024 kcal/mol
  ΔH: -1.41 ± 0.024 kcal/mol
[1]; [10]
  TdS: 1.39 kcal/mol
  ΔG: -2.44 ± 0.048 kcal/mol
  ΔH: -1.05 ± 0.048 kcal/mol
[1]; [11]
  TdS: 1.34 kcal/mol
  ΔG: -2.63 ± 0.048 kcal/mol
  ΔH: -1.29 ± 0.072 kcal/mol
[1]; [14]
  net heat capacity change ΔCp: -130 JK^-1M^-1
[2]; 10°C
  TdS: 0.884 kcal/mol
  ΔG: -1.98 ± 0.096 kcal/mol
  ΔH: -1.1 ± 0.024 kcal/mol
[2]; 15°C
  TdS: 0.98 kcal/mol
  ΔG: -2.08 ± 0.048 kcal/mol
  ΔH: -1.1 ± 0.048 kcal/mol
[2]; 20°C
  TdS: 1.22 kcal/mol
  ΔG: -2.27 ± 0.12 kcal/mol
  ΔH: -1.05 ± 0.048 kcal/mol
[2]; 25°C
  TdS: 0.98 kcal/mol
  ΔG: -2.27 ± 0.12 kcal/mol
  ΔH: -1.29 ± 0.072 kcal/mol
[2]; 30°C
  TdS: 1.55 kcal/mol
  ΔG: -2.63 ± 0.072 kcal/mol
  ΔH: -1.08 ± 0.096 kcal/mol
[2]; [14]
  heat capacity change ΔCp: -12 JK^-1M^-1
[3]; [NaCl] 0.02-0.5 M
  dlogK/dlog [NaCl]: ~ -0.21 ± 0.1
[3]; [NaCl] 0.02 M
  N (number of binding sites): 2
  Qmax (maximum fluorescence quenching at saturation): 3.8
  ΔG: -3.59 ± 0.024 kcal/mol
[3]; [13]
  Kobs: 6.0 ± 0.1 × 10^2 M^-1
[3]; [NaCl] 0.02 M, similar for each of two sites, listed as cysteine
  Kobs: 600 M⁻¹
[3]; [NaCl] 0.05 M
  Kobs: 5.6 ± 0.1 × 10^2 M^-1
  N (number of binding sites): 2
  Qmax: 4.6
  ΔG: -3.56 ± 0.024 kcal/mol
[3]; [NaCl] 0.1 M
  Kobs: 4.5 ± 0.1 × 10^2 M^-1
  N (number of binding sites): 2
  Qmax: 4.6
  ΔG: -3.42 ± 0.024 kcal/mol
[3]; [NaCl] 0.2 M
  Kobs: 3.7 ± 0.1 × 10^2 M^-1
  N (number of binding sites): 2
  Qmax: 4.5
  ΔG: -3.32 ± 0.024 kcal/mol
[3]; [NaCl] 0.5 M
  Kobs: 2.6 ± 0.1 × 10^2 M^-1
  N (number of binding sites): 2
  Qmax: 4.7
  ΔG: -3.11 ± 0.024 kcal/mol
[3]
  Kd: ~1.7 mM
[4]; [NaCl] 0.02 M
  Kobs: 6.6 ± 0.1 × 10^2 M^-1
  N (number of binding sites): 2
  Qmax: 3.9
  ΔG: -3.63 ± 0.024 kcal/mol
[4]; [NaCl] 0.05 M
  Kobs: 5.6 ± 0.1 × 10^2 M^-1
  N (number of binding sites): 2
  Qmax: 5.7
[4]; [NaCl] 0.1 M
  Kobs: 4.5 ± 0.1 × 10^1 M^-1
  N (number of binding sites): 2
  Qmax: 5.8
  ΔG: -2.15 ± 0.024 kcal/mol
[4]; [NaCl] 0.2 M
  Kobs: 3.1 ± 0.1 × 10^1 M^-1
  N (number of binding sites): 2
  Qmax: 5.8
  ΔG: -1.91 ± 0.024 kcal/mol
[4]; [NaCl] 0.5 M
  Kobs: 3.2 ± 0.1 × 10^1 M^-1
  N (number of binding sites): 2
  Qmax: 3.1
  ΔG: -1.91 ± 0.024 kcal/mol
